Data as given in patent US9663449B2, “Lipid containing formulations” (ARBUTUS BIOPHARMA CORPORATION, priority 2006, dated 2017).

System: Factor VII
Experiment: In vivo Factor VII silencing assay, serum Factor VII by chromogenic kit
Design: species or system C57BL/6 mice
Settings: 2 mg/kg siRNA; FIG. 1; suggested, 5 tail and/or 6 tail, most abundant species in ND98 6:1 preparation
Procedure: Applicants have discovered that certain polyamine lipid moieties provide desirable properties for administration of nucleic acids, such as siRNA. For example, in some embodiments, a lipid moiety is complexed with a Factor VII-targeting siRNA and administered to an animal such as a mouse. The level of secreted serum Factor VII is then quantified (24 h post administration), where the degree of Factor VII silencing indicates the degree of in vivo siRNA delivery. Accordingly, lipids providing enhanced in vivo delivery of a nucleic acid such as siRNA are preferred. In particular, Applicants have discovered polyamines having substitutions described herein can have desirable properties for delivering siRNA, such as bioavailability, biodegradability, and tolerability.
C57BL/6 mice received tail vein injections of saline or various lipid formulations. Lipid-formulated siRNAs are administered at varying doses in an injection volume of 10 μL/g animal body weight. Twenty-four hours after administration, serum samples are collected by retroorbital bleed. Serum Factor VII concentrations are determined using a chromogenic diagnostic kit (Coaset Factor VII Assay Kit, DiaPharma) according to manufacturer protocols.
The effectiveness of lipid compositions can be tested by determining the relative ability of a lipid to deliver an siRNA moiety to a target. […]

CCCCCCCCCCCCNC(=O)CCN(CCC(=O)NCCCCCCCCCCCC)CCN(CCC(=O)NCCCCCCCCCCCC)CCN(CCC(=O)NCCCCCCCCCCCC)CCN(CCC(=O)NCCCCCCCCCCCC)CCC(=O)NCCCCCCCCCCCC [Compound 5]
FVII silencing, active lipid species: active species
